Measurements reported in publication PMC10470491, “Modulation of the functional interfaces between retroviral intasomes and the human nucleosome” (mBio, 2023).
“Also recorded” adds a separate entry of the source. *1 amine or outer side, *2 acyl side, *3 side chain or, on linkers, in order; H or OH if unused. Where a SMILES comes first, the peptide text is derived from it. Bridges are numbered along the chain shown (N, C = ends). Roman numbers before positions name the chains, in order. [ ]: non-standard residue; d: D form. Actinocin(9to1) = Cc1c2oc3c(C)ccc(C(=O)[*:1])c3nc-2c(C(=O)[*:2])c(N)c1=O; NMeV = CN[C@H](C(=O)O)C(C)C; Sar = CNCC(=O)O

What was measured:
[1] = test system: PFV intasome/nucleosome complex; assay: AlphaLISA PFV intasome/nucleosome interaction assay; assay type: binding, prototype foamy virus (PFV); human mononucleosome; details: for selection as intasome/nucleosome modulator in the OncoSET screen: 25 µM; for IC50: intasome/nucleosome AS assay, Fig. 3E; for IC50 / inhibition of intasome/nucleosome association in AS: increasing drug concentrations
Procedure: AlphaLISA is a technology particularly suitable for bimolecular inhibitor screening assays using protein-protein interactions with purified recombinant proteins. The AlphaLISA assay development was performed in 96-well 12 area Alphaplate (reference 6052340, PerkinElmer, Waltham, MA, USA) with a final reaction volume of 40 µL. Cross-titration experiments of biotinylated MN (0–50 nM) against DIG-intasome (0–100 nM) were carried out to establish optimal assay concentrations for the binding assay. Ten microliters of each protein were diluted in the binding buffer 50 mM BisTris-propane pH 7, 100 mM NaCl, 0.1% (v/v) Tween-20, 0.1% (w/v) BSA, and 1 mM dithiothreitol. The plate was incubated at RT for 2 h in rotation. Ten microliters of anti-DIG acceptor beads (PerkinElmer, reference AL113) were then added, and after 1 h of incubation at RT with rotation, 10 µL of streptavidin […] (Perkin Elmer, reference 6760002) was mixed to the wells. This established a final concentration of 20 µg/mL for each bead. The plate was then incubated for 1 h at RT in the dark before the AlphaLISA signal was detected using an EnSpire Multimode Plate Reader (PerkinElmer). Negative control with binding buffer or only with one of the complexes was used to control the assay quality. Data were analyzed with GraphPad Prism 5.01 software. To evaluate tolerance for DMSO, the assay was performed as described above with an addition of 0.15–20% (v/v) of DMSO during the binding step. For the competition experiment, increasing concentrations of untagged intasome were titrated out in the 1-nM DIG-intasome/biotinylated nucleosome interaction assay.
For the AlphaLISA screening assay with the NIH OncoSET library, the binding conditions were optimized for use in 384-well plate (Optiplate, reference 6007290, PerkinElmer) with the same concentrations for complexes and beads in a final reaction volume of 20.5 µL (2.5% DMSO final concentration). The screening was first carried out with 25 µM of each compound pre-incubated for 1 h with 1 nM intasome/nucleosome complexes. Compounds were selected as inducing at least 50% decrease of the AlphaLISA signal control condition, and their inhibitory effect was further tested using dose-response curves. For compounds validation, counter select assay was performed using a short DNA fragment carrying a biotin and a DIG tag on each side. The AlphaLISA signal was monitoring using increasing concentrations of the double-tagged DNA, and the selected compounds were tested in optimized conditions at 10 µM. Any compound that causes decreased signal means that it interferes with AlphaLISA readout, and therefore, it is not relevant to this assay.

[2] = test system: mononucleosome (MN); assay: histone eviction assay (EMSA / SDS-PAGE); assay type: biochemical, human; details: 10 µM or increasing concentrations
[3] = target: T1, PFV intasome (Human spumaretrovirus, UniProt P14350); assay: biochemical; assay type: biochemical, prototype foamy virus (PFV); set-up: Briefly, PFV IN and its cognate vDNA were mixed, and assembled intasomes were purified by size exclusion chromatography; octamers produced in E. coli; details: 30 nM FITC PFV intasome, MN, drugs 0–25 µM
Procedure: Integration assays using purified assembled intasomes were performed as followed: either 100 ng of naked DNA or 100 ng of DNA assembled on 100 ng of histone octamers (24 nM final concentration) was incubated with 30 nM final concentration of purified intasome in 100 mM NaCl, 20 mM BTP pH 7, 12.5 mM MgSO4 (for PFV intasome), or in 20 mM HEPES pH 7, 7.5% DMSO, 8% PEG, 10 mM MgCl2, 20 µM ZnCl2, 100 mM NaCl, 5 mM DTT final concentration (for HIV-1 intasome) in a final volume of 40 µL. The mix was then incubated at 37°C for 15 min and 1 h, respectively. Then, reaction was stopped by the addition of 5.5 µL of a mix containing 5% SDS and 0.25 M EDTA and deproteinized with proteinase K (Promega) for 1 h at 37°C. Nucleic acids were then precipitated with 150 µL of ethanol overnight at −20°C. Samples were then spun at top speed for 1 h at 4°C, and the pellets were dried and then resuspended with DNA loading buffer. Integration products were separated on an 8% native polyacrylamide gel.

[4] = test system: HIV-1 intasome (vDNA•IN•LEDGF/p75); assay: in vitro HIV-1 concerted integration onto mononucleosome; assay type: biochemical; details: MN
[5] = target: T1, PFV intasome; assay: in vitro PFV integration into naked plasmid pBSK-601-Zeo DNA; assay type: biochemical, prototype foamy virus (PFV); set-up: Briefly, PFV IN and its cognate vDNA were mixed, and assembled intasomes were purified by size exclusion chromatography; made in house; details: 10 µM
Procedure: MNs were assembled as previously described for chromatin assembly ([7], [8]). Briefly, 5 µg of biotinylated 147 bp Widom fragment (TEBU-bio) were mixed with an excess of 10 µg of human native recombinant octamers produced in E. coli [purchased from the “Histone Source” Protein Expression and Purification (PEP) facility from the Colorado State University, https://histonesource-colostate.nbsstore.net] in Tris-HCl pH 7.7 and 2 M NaCl in 100 µl final volume. Salt dialysis was then performed to decrease the salt concentration to 0 using slide-A-Lyzer MINI dialysis device, 7 k MWCO (Fisher Scientific). Assembly was checked by electro-mobility shift assay (EMSA) on 8% native PAGE stained with SYBR safe and SDS-PAGE stained with instant blue. Eviction assays of the assembled nucleosome were incubated with increasing concentrations of drugs and then analyzed by EMSA or SDS-PAGE of the supernatant after their capture using streptavidin beads (MyONE T1 invitrogen). Naked DNA substrates (pBSK-601-Zeo vector plasmid containing 601 Widom repetitions or 147 bp 601 DNA fragment) used for comparative integration assays were treated as for nucleosome assembly. […]

[6] = OncoSET screen, 25 µM drug, 1 nM of each partner

Row | Structure (SMILES) | histone eviction / MN dissociation [2] | decrease in the AS signal [1, 6] | IC50 [1] [nM] | effect on the intasome/nucleosome AS signal ([1]; retest at 10 µM, MN) | inhibition of PFV integration into MNs [3] | also measured
1 | CCCCC(=O)OCC(=O)[C@]1(O)Cc2c(O)c3c(c(O)c2[C@@H](O[C@H]2C[C@H](NC(=O)C(F)(F)F)[C@H](O)[C@H](C)O2)C1)C(=O)c1c(OC)cccc1C3=O [valrubicin] | – | – | – | – | – | selection as intasome/nucleosome modulator in the OncoSET screen ([1]; OncoSET screen): inefficiency
2 | COc1cccc2c1C(=O)c1c(O)c3c(c(O)c1C2=O)C[C@@](O)(C(=O)CO)C[C@@H]3O[C@H]1C[C@H](N)[C@H](O[C@@H]2CCCCO2)[C@H](C)O1 [Pirarubicin, pirarubicin] | full shift of the nucleosomal DNA in addition to a strong MN dissociation | at least 50% | 630 ± 20 | strong inhibitory effect | able to inhibit PFV integration into MNs | –
3 | CC[C@@]1(O)C(=O)OCc2c1cc1n(c2=O)Cc2cc3c(CN(C)C)c(O)ccc3nc2-1 [topotecan] | – | – | – | – | did not show any effect | –
4 | O=C1CCC(N2C(=O)c3ccccc3C2=O)C(=O)N1 (centres unmarked) [thalidomide] | – | – | – | – | did not show any effect | –
5 | COc1cccc2c1C(=O)c1c(O)c3c(c(O)c1C2=O)C[C@@](O)(C(=O)CO)C[C@@H]3O [Doxorubicinone, doxorubicinone] | could not dissociate the MN | – | – | – | inefficient in inhibiting the in vitro integration | inhibition of in vitro HIV-1 integration [4]: inefficient
6 | CC/C(=C(\c1ccccc1)c1ccc(OCCN(C)C)cc1)c1ccccc1 [Tamoxifen, tamoxifen] | – | – | – | – | inefficient in inhibiting integration | inhibition of PFV integration into plasmid pBSK-601-Zeo DNA [5]: remained inefficient; inhibition of intasome/nucleosome association in AS [1]: only a slight inhibition effect
7 | CC(=O)[C@]1(O)Cc2c(O)c3c(c(O)c2[C@@H](O[C@H]2C[C@H](N)[C@H](O)[C@H](C)O2)C1)C(=O)c1ccccc1C3=O [Idarubicin, idarubicin] | strong displacement of histones from the MN | at least 50% | 450 ± 22 | strong inhibitory effect | able to inhibit PFV integration into MNs | –
8 | Cc1c2oc3c(C)ccc(C(=O)N[C@@H]4C(=O)N[C@H](C(C)C)C(=O)N5CCC[C@H]5C(=O)N(C)CC(=O)N(C)[C@@H](C(C)C)C(=O)O[C@@H]4C)c3nc-2c(C(=O)N[C@@H]2C(=O)N[C@H](C(C)C)C(=O)N3CCC[C@H]3C(=O)N(C)CC(=O)N(C)[C@@H](C(C)C)C(=O)O[C@@H]2C)c(N)c1=O [actinomycin D] (I: T[dV]P[Sar][NMeV] / II: T[dV]P[Sar][NMeV]; ester I:1-I:C, II:1-II:C; linker I:N-II:N via Actinocin(9to1)) | – | – | – | – | – | selection as intasome/nucleosome modulator in the OncoSET screen ([1]; OncoSET screen): lack of effect
9 | O=C1c2c(O)ccc(O)c2C(=O)c2c(NCCNCCO)ccc(NCCNCCO)c21 [Mitoxantrone, mitoxantrone] | – | at least 50% | 380 ± 50 | strong inhibitory effect | did not show any inhibitory effect on integration | inhibition of PFV integration into plasmid pBSK-601-Zeo DNA [5]: remained inefficient
10 | C=CC(=O)Nc1cc(Nc2nccc(-c3cn(C)c4ccccc34)n2)c(OC)cc1N(C)CCN(C)C [Osimertinib, osimertinib] | – | at least 50% | – | – | – | inhibition of intasome/nucleosome association in AS [1]: no inhibition in the concentration range used; decrease in the AS signal ([1]; retest at 10 µM, MN): 30–40%
11 | COc1cccc2c1C(=O)c1c(O)c3c(c(O)c1C2=O)C[C@@](O)(C(=O)CO)C[C@@H]3O[C@H]1C[C@H](N)[C@@H](O)[C@H](C)O1 [epirubicin] | – | – | – | – | – | selection as intasome/nucleosome modulator in the OncoSET screen ([1]; OncoSET screen): not selected as an intasome/nucleosome modulator; also recorded: inefficient in inhibiting the intasome/nucleosome complex
12 | N.N.[Cl][Pt][Cl] [cisplatin] | – | – | – | – | only a slight inhibition of integration into nucleosome | –
13 | COc1cccc2c1C(=O)c1c(O)c3c(c(O)c1C2=O)C[C@@](O)(C(C)=O)C[C@@H]3O[C@H]1C[C@H](N)[C@H](O)[C@H](C)O1 [Daunorubicin, daunorubicin] | strong displacement of histones from the MN | at least 50% | 3240 ± 18 | strong inhibitory effect | able to inhibit PFV integration into MNs | –
